For one data set, the target named is T1, PTHR1 (Homo sapiens, UniProt Q03431).
T1 construct: host or cells: CHO-K1
T1 sequence (Q03431 27-593): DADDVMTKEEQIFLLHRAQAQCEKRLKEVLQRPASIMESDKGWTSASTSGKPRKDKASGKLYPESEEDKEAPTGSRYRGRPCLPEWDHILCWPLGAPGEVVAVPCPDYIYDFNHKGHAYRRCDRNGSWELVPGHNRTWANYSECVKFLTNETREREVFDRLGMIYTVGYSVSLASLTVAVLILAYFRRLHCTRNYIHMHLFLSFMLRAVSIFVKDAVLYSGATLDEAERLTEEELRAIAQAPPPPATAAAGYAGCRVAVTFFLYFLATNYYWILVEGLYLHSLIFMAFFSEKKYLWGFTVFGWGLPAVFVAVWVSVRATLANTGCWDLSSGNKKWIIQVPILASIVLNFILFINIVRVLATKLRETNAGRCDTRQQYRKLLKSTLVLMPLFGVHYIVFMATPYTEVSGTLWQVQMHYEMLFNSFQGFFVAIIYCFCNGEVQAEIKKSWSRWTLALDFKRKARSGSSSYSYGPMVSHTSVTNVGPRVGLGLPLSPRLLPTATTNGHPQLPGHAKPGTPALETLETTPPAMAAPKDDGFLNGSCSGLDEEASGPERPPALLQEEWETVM
The experiment in a line: cAMP Hunter Teriparatide Bioassay (CHO-K1 PTHR1 cells). It is filed as cell-based.

Data set [1] is described as follows: Cleavage half-life / conversion of PTH prodrugs in PBS pH 7.4, 37° C. by LC-MS. The class given is physicochemical. The method, then: The resulting solution was incubated at 37° C. Aliquots were taken at designed time points and analyzed by LC-MS. […] Flow rate of 1 mL/min and a gradient of 10%-80% acetonitrile in water, with 0.1% trifluoroacetic acid over 10 min. […] The concentration of prodrug and drug were determined by their relative peak areas. The […] dissociation rate constant of the prodrug was determined by plotting the logarithm in the concentration of the prodrug at various time points.

*1 amine or outer side, *2 acyl side, *3 side chain or, on linkers, in order; H or OH if unused. Where a SMILES comes first, the peptide text is derived from it. Side-chain parts run from the residue outwards. The star is where a group is joined. C18 diacid = O=C(O)CCCCCCCCCCCCCCCCC(=O)*; γGlu = O=C(O)[C@H](CCC(=O)[*:2])N[*:1]; AEEA = NCCOCCOCC(=O)O

Protocol for PTHR1: The assessment of the bioactivity of a prodrug relative to its drug form was conducted in a proprietary commercial assay as contracted with Eurofins-Discover Rx Corporation win a cAMP Hunter® Teriparatide Bioassay (95-0118Y2). An 11-point dose curve in agonist mode was conducted for each individual peptide or incubation condition. Every sample was run at each dose in triplicate.
An 11-point dose curve in agonist mode was conducted for each individual peptide or incubation condition. Every sample was run at each dose in triplicate.
An 11-point dose curve in agonist mode was conducted for each individual peptide at each concentration. Every sample was run at each dose in triplicate.

On PTHR1 (FIG. 13B), `CC[C@H](C)[C@H](NC(=O)[C@H](CCC(=O)O)NC(=O)[C@H](CO)NC(=O)[C@@H](NC(=O)[C@@H](N)CO)C(C)C)C(=O)N[C@@H](CCC(N)=O)C(=O)N[C@@H](CC(C)C)C(=O)N[C@@H](CCSC)C(=O)N[C@@H](Cc1c[nH]cn1)C(=O)N[C@@H](CC(N)=O)C(=O)N[C@@H](CC(C)C)C(=O)NCC(=O)N[C@@H](CCCCN)C(=O)N[C@@H](Cc1c[nH]cn1)C(=O)N[C@@H](CC(C)C)C(=O)N[C@@H](CC(=O)O)C(=O)N[C@@H](CO)C(=O)N[C@@H](CCSC)C(=O)N[C@@H](CCC(=O)O)C(=O)N[C@@H](CCCNC(=N)N)C(=O)N[C@H](C(=O)N[C@@H](CCC(=O)O)C(=O)N[C@@H](Cc1c[nH]c2ccccc12)C(=O)N[C@@H](CC(C)C)C(=O)N[C@@H](CCCNC(=N)N)C(=O)N[C@@H](CCCCN)C(=O)N[C@@H](CCCCN)C(=O)N[C@@H](CC(C)C)C(=O)N[C@@H](CCC(N)=O)C(=O)N[C@@H](CC(=O)O)C(=O)N[C@H](C(=O)N[C@@H](Cc1c[nH]cn1)C(=O)N[C@@H](CCCCNC(=O)CC[C@H](NC(=O)COCCOCCNC(=O)COCCOCCNC(=O)CC[C@H](NC(=O)CCCCCCCCCCCCCCCCC(=O)O)C(=O)O)C(=O)O)C(=O)O)C(C)C)C(C)C` [SEQ ID NO: 122] (H-SVSEIQLMHNLGKHLDSMERVEWLRKKLQDVHK([γGlu-AEEA-AEEA-γGlu-C18 diacid])-OH; N-terminus and C-terminus assumed) gave a Hillslope of 2.522 and a S/B of 8.2.

One may read the half-life as how long it takes for the measured level to halve. Consider `CC[C@H](C)[C@H](NC(=O)[C@H](CCC(=O)O)NC(=O)[C@H](CO)NC(=O)[C@@H](NC(=O)[C@H](CO)NC(=O)CN(C)C(=O)[C@H](N)CCCCN)C(C)C)C(=O)N[C@@H](CCC(N)=O)C(=O)N[C@@H](CC(C)C)C(=O)N[C@@H](CCSC)C(=O)N[C@@H](Cc1c[nH]cn1)C(=O)N[C@@H](CC(N)=O)C(=O)N[C@@H](CC(C)C)C(=O)NCC(=O)N[C@@H](CCCCN)C(=O)N[C@@H](Cc1c[nH]cn1)C(=O)N[C@@H](CC(C)C)C(=O)N[C@@H](CC(N)=O)C(=O)N[C@@H](CO)C(=O)N[C@@H](CCSC)C(=O)N[C@@H](CCC(=O)O)C(=O)N[C@@H](CCCNC(=N)N)C(=O)N[C@H](C(=O)N[C@@H](CCC(=O)O)C(=O)N[C@@H](Cc1c[nH]c2ccccc12)C(=O)N[C@@H](CC(C)C)C(=O)N[C@@H](CCCNC(=N)N)C(=O)N[C@@H](CCCCN)C(=O)N[C@@H](CCCCN)C(=O)N[C@@H](CC(C)C)C(=O)N[C@@H](CCC(N)=O)C(=O)N[C@@H](CC(=O)O)C(=O)N[C@H](C(=O)N[C@@H](Cc1c[nH]cn1)C(=O)N[C@@H](CC(N)=O)C(=O)N[C@@H](Cc1ccccc1)C(=O)N[C@@H](CCCCNC(=O)CC[C@H](NC(=O)CCCCCCCCCCCCCCCCC(=O)O)C(=O)O)C(N)=O)C(C)C)C(C)C` [SEQ ID NO: 57], for which the half-life in data set [1] (PBS buffer, dipeptide cleavage from PTH prodrug, PBS pH 7.4, 37° C., read-out: Half life (converted)) is 49 h. For the same molecule, the “Half life, fold faster (vs SEQ ID NO: 45)” value in data set [1] (comparator SEQ ID NO: 45) was determined as 1.8 faster without. At PTHR1 (FIG. 13A), `CC[C@H](C)[C@H](NC(=O)[C@H](CCC(=O)O)NC(=O)[C@H](CO)NC(=O)[C@@H](NC(=O)[C@@H](N)CO)C(C)C)C(=O)N[C@@H](CCC(N)=O)C(=O)N[C@@H](CC(C)C)C(=O)N[C@@H](CCSC)C(=O)N[C@@H](Cc1c[nH]cn1)C(=O)N[C@@H](CC(=O)O)C(=O)N[C@@H](CC(C)C)C(=O)NCC(=O)N[C@@H](CCCCN)C(=O)N[C@@H](Cc1c[nH]cn1)C(=O)N[C@@H](CC(C)C)C(=O)N[C@@H](CC(N)=O)C(=O)N[C@@H](CO)C(=O)N[C@@H](CCSC)C(=O)N[C@@H](CCC(=O)O)C(=O)N[C@@H](CCCNC(=N)N)C(=O)N[C@H](C(=O)N[C@@H](CCC(=O)O)C(=O)N[C@@H](Cc1c[nH]c2ccccc12)C(=O)N[C@@H](CC(C)C)C(=O)N[C@@H](CCCNC(=N)N)C(=O)N[C@@H](CCCCN)C(=O)N[C@@H](CCCCN)C(=O)N[C@@H](CC(C)C)C(=O)N[C@@H](CCC(N)=O)C(=O)N[C@@H](CC(=O)O)C(=O)N[C@H](C(=O)N[C@@H](Cc1c[nH]cn1)C(=O)N[C@@H](CCCCNC(=O)CC[C@H](NC(=O)COCCOCCNC(=O)COCCOCCNC(=O)CC[C@H](NC(=O)CCCCCCCCCCCCCCCCC(=O)O)C(=O)O)C(=O)O)C(=O)O)C(C)C)C(C)C` [SEQ ID NO: 120] (H-SVSEIQLMHDLGKHLNSMERVEWLRKKLQDVHK([γGlu-AEEA-AEEA-γGlu-C18 diacid])-OH) gave a Hillslope of 2.804 and a S/B of 10.

On PTHR1 (FIG. 12), `CC[C@H](C)[C@H](NC(=O)[C@H](CCC(=O)O)NC(=O)[C@H](CO)NC(=O)[C@@H](NC(=O)[C@@H](N)CO)C(C)C)C(=O)N[C@@H](CCC(N)=O)C(=O)N[C@@H](CC(C)C)C(=O)N[C@@H](CCSC)C(=O)N[C@@H](Cc1c[nH]cn1)C(=O)N[C@@H](CC(N)=O)C(=O)N[C@@H](CC(C)C)C(=O)NCC(=O)N[C@@H](CCCCN)C(=O)N[C@@H](Cc1c[nH]cn1)C(=O)N[C@@H](CC(C)C)C(=O)N[C@@H](CC(N)=O)C(=O)N[C@@H](CO)C(=O)N[C@@H](CC[S+](C)[O-])C(=O)N[C@@H](CCC(=O)O)C(=O)N[C@@H](CCCNC(=N)N)C(=O)N[C@H](C(=O)N[C@@H](CCC(=O)O)C(=O)N[C@@H](Cc1c[nH]c2ccccc12)C(=O)N[C@@H](CC(C)C)C(=O)N[C@@H](CCCNC(=N)N)C(=O)N[C@@H](CCCCN)C(=O)N[C@@H](CCCCN)C(=O)N[C@@H](CC(C)C)C(=O)N[C@@H](CCC(N)=O)C(=O)N[C@@H](CC(=O)O)C(=O)N[C@H](C(=O)N[C@@H](Cc1c[nH]cn1)C(=O)N[C@@H](CCCCNC(=O)CC[C@H](NC(=O)COCCOCCNC(=O)COCCOCCNC(=O)CC[C@H](NC(=O)CCCCCCCCCCCCCCCCC(=O)O)C(=O)O)C(=O)O)C(=O)O)C(C)C)C(C)C` (stereo partly shown) [SEQ ID NO: 110] showed a Hillslope of 3.034 and a S/B of 14.2.

As to `CC[C@H](C)[C@H](NC(=O)[C@H](CCC(=O)O)NC(=O)[C@H](CO)NC(=O)[C@@H](NC(=O)[C@@H](N)CO)C(C)C)C(=O)N[C@@H](CCC(N)=O)C(=O)N[C@@H](CC(C)C)C(=O)N[C@@H](CCSC)C(=O)N[C@@H](Cc1c[nH]cn1)C(=O)N[C@@H](CC(N)=O)C(=O)N[C@@H](CC(C)C)C(=O)NCC(=O)N[C@@H](CCCCN)C(=O)N[C@@H](Cc1c[nH]cn1)C(=O)N[C@@H](CC(C)C)C(=O)N[C@@H](CC(N)=O)C(=O)N[C@@H](CO)C(=O)N[C@@H](CCSC)C(=O)N[C@@H](CCC(=O)O)C(=O)N[C@@H](CCCNC(=N)N)C(=O)N[C@H](C(=O)N[C@@H](CCC(=O)O)C(=O)N[C@@H](Cc1c[nH]c2ccccc12)C(=O)N[C@@H](CC(C)C)C(=O)N[C@@H](CCCNC(=N)N)C(=O)N[C@@H](CCCCN)C(=O)N[C@@H](CCCCN)C(=O)N[C@@H](CC(C)C)C(=O)N[C@@H](CCC(=O)O)C(=O)N[C@@H](CC(=O)O)C(=O)N[C@H](C(=O)N[C@@H](Cc1c[nH]cn1)C(=O)N[C@@H](CCCCNC(=O)CC[C@H](NC(=O)COCCOCCNC(=O)COCCOCCNC(=O)CC[C@H](NC(=O)CCCCCCCCCCCCCCCCC(=O)O)C(=O)O)C(=O)O)C(=O)O)C(C)C)C(C)C` [SEQ ID NO: 124] (H-SVSEIQLMHNLGKHLNSMERVEWLRKKLEDVHK([γGlu-AEEA-AEEA-γGlu-C18 diacid])-OH; N-terminus and C-terminus assumed), at PTHR1 (FIG. 13B), the Hillslope amounted to 1.797 and the S/B is 8.9. Take `CC[C@H](C)[C@H](NC(=O)[C@H](CCC(=O)O)NC(=O)[C@H](CO)NC(=O)[C@@H](NC(=O)[C@@H](N)CO)C(C)C)C(=O)N[C@@H](CCC(=O)O)C(=O)N[C@@H](CC(C)C)C(=O)N[C@@H](CCSC)C(=O)N[C@@H](Cc1c[nH]cn1)C(=O)N[C@@H](CC(N)=O)C(=O)N[C@@H](CC(C)C)C(=O)NCC(=O)N[C@@H](CCCCN)C(=O)N[C@@H](Cc1c[nH]cn1)C(=O)N[C@@H](CC(C)C)C(=O)N[C@@H](CC(N)=O)C(=O)N[C@@H](CO)C(=O)N[C@@H](CCSC)C(=O)N[C@@H](CCC(=O)O)C(=O)N[C@@H](CCCNC(=N)N)C(=O)N[C@H](C(=O)N[C@@H](CCC(=O)O)C(=O)N[C@@H](Cc1c[nH]c2ccccc12)C(=O)N[C@@H](CC(C)C)C(=O)N[C@@H](CCCNC(=N)N)C(=O)N[C@@H](CCCCN)C(=O)N[C@@H](CCCCN)C(=O)N[C@@H](CC(C)C)C(=O)N[C@@H](CCC(N)=O)C(=O)N[C@@H](CC(=O)O)C(=O)N[C@H](C(=O)N[C@@H](Cc1c[nH]cn1)C(=O)N[C@@H](CCCCNC(=O)CC[C@H](NC(=O)COCCOCCNC(=O)COCCOCCNC(=O)CC[C@H](NC(=O)CCCCCCCCCCCCCCCCC(=O)O)C(=O)O)C(=O)O)C(=O)O)C(C)C)C(C)C` [SEQ ID NO: 118] (H-SVSEIELMHNLGKHLNSMERVEWLRKKLQDVHK([γGlu-AEEA-AEEA-γGlu-C18 diacid])-OH; N-terminus and C-terminus assumed): on PTHR1 (FIG. 13A), the Hillslope was determined as 1.648 and the S/B amounted to 9.4. On to “SEQ ID NO: 109: PTH analog site-specifically modified by oxidation to methionine sulfoxide (SVSEIQLXHNLGKHLNSMERVEWLRKKLQDVHX; SITE 8 MISC_FEATURE - Xaa at position 8 is Met wherein the side chain is oxidized to form a sulfoxide; SITE 33 MISC_FEATURE - Xaa at position 33 is Lys wherein the side chain is acylated with COC16H32CO2H via a gamma Glu-(MINIPEG)2-gamma Glu spacer; listed as Homo sapiens)”, for which the S/B with PTHR1 (FIG. 12) came to 1.7.
